Test results taken from ChEMBL document CHEMBL1130551, “Synthesis and progesterone receptor binding affinity of substituted 1-phenyl-7-benzyl-4,5,6,7-tetrahydro-1-indazoles” (Bioorg Med Chem Lett, 1997).
The source made the active and inactive calls. No cut-off for these calls is given here.

Legend:
Progesterone receptor [1] = target: T1, Progesterone receptor (Oryctolagus cuniculus, UniProt P06186); assay: Binding affinity determined by ability to displace [3H]R5020 radioligand using uterine progesterone receptor obtained from estrogen-primed rabbit
T1 sequence (P06186 whole entry): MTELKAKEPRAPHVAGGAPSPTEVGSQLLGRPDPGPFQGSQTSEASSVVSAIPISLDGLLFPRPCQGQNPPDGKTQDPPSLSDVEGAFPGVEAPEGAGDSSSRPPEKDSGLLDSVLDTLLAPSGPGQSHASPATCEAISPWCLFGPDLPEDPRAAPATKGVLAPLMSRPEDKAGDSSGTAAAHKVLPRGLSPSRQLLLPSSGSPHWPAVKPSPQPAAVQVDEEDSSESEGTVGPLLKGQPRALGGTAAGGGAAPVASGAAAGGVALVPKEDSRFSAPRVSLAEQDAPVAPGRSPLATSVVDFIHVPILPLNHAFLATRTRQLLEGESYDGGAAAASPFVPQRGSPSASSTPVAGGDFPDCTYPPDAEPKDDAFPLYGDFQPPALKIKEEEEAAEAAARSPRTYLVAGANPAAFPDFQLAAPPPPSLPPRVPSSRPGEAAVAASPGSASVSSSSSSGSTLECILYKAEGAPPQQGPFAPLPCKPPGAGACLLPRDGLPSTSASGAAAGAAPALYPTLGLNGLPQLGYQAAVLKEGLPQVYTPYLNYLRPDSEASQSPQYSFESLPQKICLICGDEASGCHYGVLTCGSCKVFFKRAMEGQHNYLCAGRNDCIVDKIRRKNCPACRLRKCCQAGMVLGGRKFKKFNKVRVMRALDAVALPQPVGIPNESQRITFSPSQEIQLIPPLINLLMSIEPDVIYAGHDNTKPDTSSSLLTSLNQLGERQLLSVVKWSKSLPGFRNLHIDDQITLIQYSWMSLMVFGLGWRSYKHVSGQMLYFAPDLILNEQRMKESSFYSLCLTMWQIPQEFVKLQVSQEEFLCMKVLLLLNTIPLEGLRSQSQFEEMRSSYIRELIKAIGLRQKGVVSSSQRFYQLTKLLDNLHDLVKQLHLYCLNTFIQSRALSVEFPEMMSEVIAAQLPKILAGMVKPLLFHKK

T47D [2] = assay: Agonistic activity in T47D human breast carcinoma cell proliferation assay; Not active; type: functional, cell-based
T47D [3] = assay: Agonistic activity in T47D human breast carcinoma cell proliferation assay; type: functional
T47D [4] = assay: Agonistic activity in T47D human breast carcinoma cell proliferation assay; Not active up to 10 uM; type: functional, cell-based
Progesterone receptor [5] = target: T1, Progesterone receptor; assay: Displacement of [3H]R5020 from uterine progesterone receptor of estrogen-primed rabbits; Not active up to 10 uM
Progesterone receptor [6] = target: T1, Progesterone receptor; assay: Displacement of [3H]R5020 from uterine progesterone receptor of estrogen-primed rabbits; Not active

IC50 (Progesterone receptor [1]) [µM]	SMILES	SC200 (T47D [2])	further results
0.0564	O=Cc1nn(-c2ccc(F)cc2)c2c1CCCC2Cc1ccc2ccccc2c1 (centres undefined)	inactive	–
1.38	Fc1ccc(-n2nc(CNCc3ccccc3)c3c2C(Cc2cccc4ccccc24)CCC3)cc1 (centres undefined)	–	–
4.01	CCCCCCCC(=O)OCc1nn(-c2ccc(F)cc2)c2c1CCCC2Cc1cccc2ccccc12 (centres undefined)	inactive	–
0.147	C=Cc1nn(-c2ccc(F)cc2)c2c1CCCC2Cc1cccc2ccccc12 (centres undefined)	inactive	–
2.19	CC(C)c1ccc(CC2CCCc3c(C=O)nn(-c4ccc(F)cc4)c32)cc1 (centres undefined)	–	–
0.069	O=Cc1nn(-c2cccc(Cl)c2)c2c1CCCC2Cc1cccc2ccccc12 (centres undefined)	–	–
0.182	O=C(OCc1nn(-c2ccc(F)cc2)c2c1CCCC2Cc1cccc2ccccc12)c1ccccc1 (centres undefined)	inactive	–
0.073	CC(=O)OCc1nn(-c2ccc(F)cc2)c2c1CCCC2Cc1cccc2ccccc12 (centres undefined)	inactive	–
0.0168	COc1cccc(CC2CCCc3c(C=O)nn(-c4ccc(F)cc4)c32)c1 (centres undefined)	–	SC200 (T47D [3]): 417 nM
0.851	CCCCOC(=O)c1ccc(-n2nc(C=O)c3c2C(Cc2cccc4ccccc24)CCC3)cc1 (centres undefined)	inactive	–
0.052	OCc1nn(-c2ccc(F)cc2)c2c1CCCC2Cc1cccc2ccccc12 (centres undefined)	–	SC200 (T47D [4]): inactive
1.57	COC(=O)Nc1nn(-c2ccc(F)cc2)c2c1CCCC2Cc1cccc2ccccc12 (centres undefined)	–	–
0.097	Fc1ccc(-n2nc(C3OCCO3)c3c2C(Cc2cccc4ccccc24)CCC3)cc1 (centres undefined)	–	–
1.89	COc1ccc(CC2CCCc3c(C=O)nn(-c4ccc(F)cc4)c32)cc1OC (centres undefined)	–	–
0.69	CCC(O)c1nn(-c2ccc(F)cc2)c2c1CCCC2Cc1cccc2ccccc12 (centres undefined)	–	–
0.09	CCOC(=O)OCc1nn(-c2ccc(F)cc2)c2c1CCCC2Cc1cccc2ccccc12 (centres undefined)	inactive	–
0.547	CN(C)/N=C/c1nn(-c2ccc(F)cc2)c2c1CCCC2Cc1cccc2ccccc12 (centres undefined)	inactive	–
0.041	N#Cc1nn(-c2ccc(F)cc2)c2c1CCCC2Cc1cccc2ccccc12 (centres undefined)	inactive	–
3	CCN(CC)C(=O)c1nn(-c2ccc(F)cc2)c2c1CCCC2Cc1cccc2ccccc12 (centres undefined)	–	–
0.0119	O=Cc1nn(-c2ccc(F)cc2)c2c1CCCC2Cc1ccc(Cl)cc1 (centres undefined)	inactive	–
0.0065	O=Cc1nn(-c2ccc(F)cc2)c2c1CCCC2Cc1ccc(F)cc1 (centres undefined)	–	SC200 (T47D [3]): 27 nM
> 10	CC(=O)N/N=C/c1nn(-c2ccc(F)cc2)c2c1CCCC2Cc1cccc2ccccc12 (centres undefined)	–	–
0.236	CC(O)c1nn(-c2ccc(F)cc2)c2c1CCCC2Cc1cccc2ccccc12 (centres undefined)	–	–
–	COC(=O)c1ccc(-n2nc(C=O)c3c2C(Cc2cccc4ccccc24)CCC3)cc1 (centres undefined)	–	IC50 (Progesterone receptor [5]): Not Active

IC50 (Progesterone receptor [1]) [µM]	SMILES	SC200 (T47D [2])	further results
> 10	O=C(NCc1ccccc1)c1nn(-c2ccc(F)cc2)c2c1CCCC2Cc1cccc2ccccc12 (centres undefined)	–	–
0.006	O=Cc1nn(-c2ccccc2)c2c1CCCC2Cc1cccc2ccccc12 (centres undefined)	–	SC200 (T47D [3]): 56 nM
1	CCC(=O)c1nn(-c2ccc(F)cc2)c2c1CCCC2Cc1cccc2ccccc12 (centres undefined)	–	–
0.0127	COc1ccc(-n2nc(C=O)c3c2C(Cc2cccc4ccccc24)CCC3)cc1 (centres undefined)	inactive	–
0.628	O/N=C/c1nn(-c2ccc(F)cc2)c2c1CCCC2Cc1cccc2ccccc12 (centres undefined)	–	–
> 10	O=S(=O)(N/N=C/c1nn(-c2ccc(F)cc2)c2c1CCCC2Cc1cccc2ccccc12)c1ccccc1 (centres undefined)	inactive	–
0.0032	O=Cc1nn(-c2ccc(F)cc2)c2c1CCCC2Cc1cccc2ccccc12 (centres undefined)	–	SC200 (T47D [3]): 105 nM
0.003	O=Cc1nn(-c2ccc(F)cc2)c2c1CCCC2Cc1ccccc1 (centres undefined)	–	SC200 (T47D [3]): 22 nM
0.009	O=Cc1nn(-c2ccc(Cl)cc2)c2c1CCCC2Cc1cccc2ccccc12 (centres undefined)	inactive	–
0.0053	CC(=O)OC(OC(C)=O)c1nn(-c2ccc(F)cc2)c2c1CCCC2Cc1cccc2ccccc12 (centres undefined)	–	SC200 (T47D [3]): 72 nM
10	O=Cc1nn(-c2ccc(F)cc2)c2c1CCCC2Cc1ccc(-c2ccccc2)cc1 (centres undefined)	–	–
0.0105	O=Cc1nn(-c2ccc(F)cc2)c2c1CCCC2Cc1ccccc1Cl (centres undefined)	–	SC200 (T47D [3]): 100 nM
0.0023	Fc1ccc(-n2nc(/C=N/c3ccccc3)c3c2C(Cc2cccc4ccccc24)CCC3)cc1 (centres undefined)	–	SC200 (T47D [3]): 185 nM
1.76	CC(=O)c1nn(-c2ccc(F)cc2)c2c1CCCC2Cc1cccc2ccccc12 (centres undefined)	–	–
0.0077	Cc1ccc(CC2CCCc3c(C=O)nn(-c4ccc(F)cc4)c32)cc1 (centres undefined)	–	SC200 (T47D [3]): 275 nM
> 10	CCCCCCCCOC(=O)c1ccc(-n2nc(C=O)c3c2C(Cc2cccc4ccccc24)CCC3)cc1 (centres undefined)	inactive	–
0.163	COc1ccc(CC2CCCc3c(C=O)nn(-c4ccc(F)cc4)c32)cc1 (centres undefined)	–	–
–	O=Cc1nn(-c2ccc(O)cc2)c2c1CCCC2Cc1cccc2ccccc12 (centres undefined)	–	IC50 (Progesterone receptor [6]): Not Active
0.002	O=Cc1nn(-c2ccc(F)cc2)c2c1CCCC2Cc1ccc(F)c(F)c1 (centres undefined)	–	SC200 (T47D [3]): 81 nM
1	CC(C)(C)c1ccc(CC2CCCc3c(C=O)nn(-c4ccc(F)cc4)c32)cc1 (centres undefined)	–	–
0.049	CN/N=C/c1nn(-c2ccc(F)cc2)c2c1CCCC2Cc1cccc2ccccc12 (centres undefined)	inactive	–
1.38	CCN(CC)Cc1nn(-c2ccc(F)cc2)c2c1CCCC2Cc1cccc2ccccc12 (centres undefined)	–	–
> 10	O=C(N/N=C/c1nn(-c2ccc(F)cc2)c2c1CCCC2Cc1cccc2ccccc12)c1ccccc1 (centres undefined)	–	SC200 (T47D [3]): 2265 nM
